BigSolDB 2.1

C1CC1N1C2C3N(C4CC4)C1C1N(C4CC4)C(C(N1C1CC1)N3C1CC1)N2C1CC1
solubility (mole fraction)
Conditions	278.15 K	283.15 K	288.15 K	293.15 K	298.15 K	303.15 K	308.15 K	313.15 K	318.15 K
in 1,1,2-trichloroethane	0.00866	0.00991	0.0113	0.0127	0.0143	0.0161	0.0182	0.0206	0.0234
in 1,2-dichloroethane	0.00228	0.00279	0.00343	0.00421	0.00513	0.00624	0.00752	0.00903	0.0108
in acetone	0.000269	0.000333	0.000411	0.000503	0.000611	0.000736	0.000875	0.00103	0.0012
in acetonitrile	5.71e-05	6.68e-05	7.76e-05	8.91e-05	0.000101	0.000114	0.000128	0.000143	0.000159
in chloroform	0.0231	0.0263	0.0297	0.0332	0.0367	0.0405	0.0444	–	–
in cyclohexane	–	0.00931	0.0111	0.0132	0.0157	0.0186	0.0218	0.0255	0.0297
in dichloromethane	0.0129	0.0147	0.0169	0.0194	0.0222	0.0255	0.0291	–	–
in ethanol	0.000225	0.000283	0.00036	0.000452	0.000557	0.000675	0.000805	0.000951	0.00111
in ethyl acetate	0.00121	0.0014	0.00168	0.00204	0.00249	0.00305	0.00373	0.00455	0.00552
in methanol	4.66e-05	7.71e-05	0.00011	0.000144	0.00018	0.000219	0.000259	0.0003	0.000341
in n-hexane	0.00406	0.00447	0.00507	0.00588	0.00692	0.00819	0.00973	0.0116	0.0138
in tetrachloromethane	0.0269	0.0298	0.0333	0.0372	0.0415	0.0461	0.0511	0.0568	0.0632
